Reference: patent US20230126987A1, “METHODS FOR TREATING CYTOKINE STORM SYNDROME AND RELATED DISEASES” (Generos Biopharma Ltd., priority 2020, published 2023)

What was measured:
[1] = test system: RSV-infected lung epithelial cells; details: cited from earlier work
[2] = test system: LPS-induced pro-inflammatory cytokines; assay: LPS-induced acute lung injury model in mice, BALF cytokines by ELISA; details: airway LPS 1 µg day 1
H5N1 virus = details: co-administration with zanamivir, compared to antiviral treatment alone; cited from earlier work
H2N2 influenza virus = details: intraperitoneally on days 4 to 10 after exposure to H2N2 influenza virus, following the onset of illness; cited from earlier work
[3] = test system: LPS-induced pro-inflammatory cytokines; assay: LPS-induced sepsis model in mice, plasma cytokines by ELISA; format: in vivo, Balb/c mice; details: i.p. 1 hour before LPS 10 mg/kg i.p., DEX 3 mg/kg, Nib1 5 mg/kg, 4 hours after LPS
Protocol: FIGS. 2A and 2B show the cytokine levels of TNFα and IL-6, respectively, in serum as measured by an ELISA kit. […] Whole blood was collected at 4 hours after LPS injection, and the plasma was extracted for ELISA measurement. *indicates P<0.05, **indicates P<0.01, *** indicates P<0.001, and **** indicates P<0.0001.
After 1 hour, all the animals were exposed to lethal dose of LPS (10 mg/kg, 2 mg/mL, i.p., Solarbio L8880). All animals were sacrificed 4 hours after LPS injection for tissue and whole blood collection.
FIGS. 2A and 2B show the cytokine levels of TNFα and IL-6, respectively, in the serum as measured by an ELISA kit. […] Whole blood was collected at 4 hours after LPS injection and plasma was extracted for ELISA measurement. *indicates P<0.05, **indicates P<0.01, *** indicates P<0.001, and **** indicates P<0.0001.

[4] = test system: LPS-induced pro-inflammatory cytokines; assay: Repetitive low dose LPS challenge sepsis-like persistent inflammation model in mice, whole blood cell cytokine RT-qPCR; format: in vivo, Balb/c mice; details: LPS 10 µg/mouse i.p. daily for 4 days, oral DEX 3 mg/kg or Nib1 0.6 mg/kg daily, whole blood cells RT-qPCR
Excerpt: FIGS. 4A, 4B, and 4C show the cytokine levels of IL-1β, IL-6, and TNFα, respectively, in the whole blood cells as measured by RT-qPCR. […] At the end of experiment, whole blood cells were collected and the total RNA was extracted for RT-qPCR measurement of the cytokine mRNA. *indicates P<0.05, **indicates P<0.01, *** indicates P<0.001.
At the end of the experiment, all animals were sacrificed, and whole blood cells were purified by centrifugation and subjected to standard RT-qPCR detection of IL-6 and TNFα mRNA levels according to the manufacturer’s instructions.

STAT5 = STAT5 inhibition in Jurkat cells, immunoblotting of IFNβ-induced STAT5 phosphorylation (pY694)
human PBMC = assay: LPS-induced cytokine release in human PBMC, Luminex multiplex cytokine profiling; format: cell-based; details: 10 µM 1 h before LPS 100 ng/ml for 4 h; supernatant; relative to DMSO = 100%
[5] = 3 mg/kg po qd 4 days, compared to DMSO-treated group, p<0.05

For `CCCCC/C=C/C=C1/C(=O)C=C[C@@H]1C/C=C\CCCC(=O)O` [15d-PGJ2], the “production of IL-1α, IL-6, and TNF cytokines, CXCL8 and CCL5 chemokines, and ICAM-1” value [1] is given as “decreased production”.
In the case of `CC(=O)OCC(=O)[C@@]1(O)[C@H](C)C[C@H]2[C@@H]3CCC4=CC(=O)C=C[C@]4(C)[C@@]3(F)[C@@H](O)C[C@@]21C` [DEX, dexamethasone acetate], the “reduction of IL-6 level in bronchoalveolar lavage fluid” value [2, 5] is reported as “about 50%” and the “reduction of TNFα level in bronchoalveolar lavage fluid” value [2, 5] is reported as “about 50%”.
In the case of `Nc1ccc(O)c(C(=O)O)c1` [Mesalamine], the cellular infiltrate (H5N1 virus) is listed as “diminished cellular infiltrate” and the survival (H5N1 virus) is listed as “improved survival”.
In the case of `Cc1ccc(C)c(OCCCC(C)(C)C(=O)O)c1` [gemfibrozil], the survival (H2N2 influenza virus) is given as “significantly increased survival”.
With `O=c1[nH]c2ccccc2n1C1CCN(CCCC(c2ccc(F)cc2)c2ccc(F)cc2)CC1` [pimozide, 1-[1-[4,4-bis(4-fluorophenyl)butyl]-4-piperidinyl]-1,3-dihydro-2H-benzimidazole-2-one] the “plasma level of TNFα” value ([3]; vs DMSO (DEX p<0.0001, Nib1 p<0.01)) was “significantly reduced”, the “plasma level of IL-6” value ([3]; vs DMSO (DEX p<0.01, Nib1 p<0.001)) was “significantly reduced” and the TNFα level ([4]; TNFα returned to basal level) was “no difference was detected”. For the same molecule, the IL-1β level ([4]; vs DMSO (DEX p<0.05, Nib1 p<0.001)) was “significantly reduced”, the IL-6 level ([4]; vs DMSO (both p<0.05)) was “significantly reduced” and the “reduction of the activation of STAT5 (phosphorylation)” value (STAT5; Jurkat cells pretreated with 10 µM for 1 hour, then IFNβ 50 ng/ml for 30 min) was “more than 50%”. For the same molecule, the Phospho-STAT5 signal (STAT5; Jurkat cells treated with 50 µM, IFNβ 50 ng/ml for 30 min) was “completely undetectable”, the “level of IL-6 in bronchoalveolar lavage fluid” value ([2]; 0.6 mg/kg po qd 4 days, vs DMSO, p<0.001) was “significantly reduced” and the “level of TNFα in bronchoalveolar lavage fluid” value ([2]; 0.6 mg/kg po qd 4 days, vs DMSO, p<0.01) was “significantly reduced”. The “secretion of IL4” value (human PBMC) was “significantly reduced”, the “secretion of IL17A” value (human PBMC) was “significantly reduced” and the “secretion of IL23” value (human PBMC) was “significantly reduced”. For the same molecule, the “secretion of IL-1β” value (human PBMC) was “significantly reduced” and the “secretion of IL-6” value (human PBMC) was “significantly reduced”.
